This is an account of results in US20050239873A1 (priority 1999, published 2005).

One data set relates to NOD/SCID mice. The data set is described as follows: In vivo toxicity, intravenous dosing.
For data set [1], the system named is RPMI-8226 human myeloma xenografts in NOD/SCID mice. The data set is described as follows: RPMI-8226 tumor xenografts. The class given is in vivo, mouse. The protocol: Six to nine-week old Nod/Les2 Scid/J mice were inoculated with 3×10^7 RPMI-8226 cells by interscapular subcutaneous injection. Mice were maintained under specific pathogen-free conditions. Palpable tumor nodules were measured in two dimensions with calipers and tumor volumes calculated in mm^3 as (length×width^2)/2. Blood samples were collected by retro-orbital bleed for human light chain measurements by ELISA with lambda-specific antibody and horseradish peroxidase detection (BD Biosciences). Animals were sacrificed by halothane inhalation, and histologic examination of tumors and internal organs was performed. All experiments were approved by the Fred Hutchison Cancer Research Center Institutional Animal Care and Use Committee.
2-OMe antimycin A1 was synthesized from antimycin A1 (Sigma) (comprising about 80% antimycin Ala and about 20% A1b) and dissolved in phosphate-buffered saline with 20% Cremaphor, 25% ethanol (3 mg/ml) for parenteral administration by tail vein injection in a total volume of 100 μl. Control mice received injections of Cremaphor/ethanol vehicle.
Tissues were fixed in 10% buffered formalin, embedded in paraffin, sectioned and stained with hematoxylin and eosin. TUNEL staining was performed using 0.3 units/ml terminal deoxynucleotidyl transferase and biotinylated dATP with development by avidin-biotin peroxidase method. BCl-xL immunohistochemistry was performed using anti-Bcl-xL antibody (BD Biosciences) followed by biotinylated secondary antibody and peroxidase-labeled ABC reagent (Vector, Burlingame Calif.).
To determine whether 2-OMeA, has anti-tumor activity in vivo, a total of 12 NOD/SCID mice in three experiments were inoculated with 3×10^7 RPMI-8226 human myeloma cells by interscapular subcutaneous injection. […] In total, six mice received three intravenous doses of 10 mg/kg 2-OMeA1 on alternate days starting on day 6. Six control mice received injections of Cremaphor/ethanol vehicle without drug.

The subject of the next data set is plasma proteins. The experiment in a line: Binding to plasma proteins (ultrafiltration). The following applies: presence of NaF+EDTA, 1000 ng/ml. Format: in vitro ADME, dog. The procedure: Solutions of 2-OMe antimycin A3 were diluted with plasma (dog or human) containing NaF+EDTA to final concentrations of 1.0 or 0.2 μg/ml. Controls were diluted with water to the same final concentrations. These preparations were incubated at 37° C. for 20 min, at which time portions were taken and placed in the sample reservoirs of Amicon Centrifree® ultrafiltration systems (Millipore Co., Bedford, Mass.). At 37° C., the filter systems were centrifuged until the reservoirs were dry. From each filtrate, portions were taken for analysis by HPLC. The amounts present were designated as “free drug” (F). The concentrations of the unfiltered solutions were also determined by triplicate analyses. This amount represented the “total drug” concentration (T). The percentage of 2-OMe antimycin A3 bound to plasma proteins was calculated by the following formula: % bound=((T−F)/T)×100
Similar experiments were performed for 2-OMe antimycin A3 in dog or rat plasma in the absence of NaF/EDTA.

The subject of data set [2] is TAMH hepatocyte cell line. The experiment in a line: O2 consumption with a Clark electrode. The class given is cell-based, murine. The procedure:
Respiratory rates of both cell lines were maintained through repeated additions of 10 μM 2-OMeA, to a final concentration of 90 μM. […] Real-time glucose consumption and lactate production by TAMH cells grown on microcarrier beads was monitored using a novel microsequential injection-lab on valve (μSI-LOV) system (Schulz et al., Analyst 127:1293-1298, 2002). […] Since 2-OMeA has no effect on cellular respiration at these concentrations, 2-OMeA induced aerobic glycolysis in TAMH cells. The glycolytic response to 2-OMeA was proportional to cellular BCl-xL protein expression.

A further data set concerns RPMI-8226. The data set is described as follows: Propidium iodide exclusion / flow cytometry cytotoxicity. Format: cell-based, human. Particulars: for mode of induced cell death: annexin V, sub-G1 DNA content, mitochondrial membrane potential. The procedure: Cell survival was assayed by exclusion of propidium iodide (PI; 10 μg/ml) by unfixed cells. Annexin V-FITC (Pharmingen) or 3, 3′-dihexyloxacarbocyanine iodide (DiOC6(3); Molecular Probes) staining was analyzed together with PI to discriminate early apoptotic cells. Apoptotic cells were also measured as sub-G1 events among ethanol-fixed cells stained with 10 μg/ml PI. All cell samples were analyzed using a benchtop FACSCalibur™ (Becton Dickinson, San Jose, Calif.). Flow data were analyzed using MultiCycle AV software (Phoenix Flow Systems). For intracellular pH measurements, cell pellets were washed once and resuspended in 2 ml of HEPES-buffered medium (no phenol red and no serum). Carboxy-SNARF-1-AM (Molecular Probes, 1 mM stock in DMSO, stored at −20° C.) was added to a final concentration of 10 μM, and the cells were incubated for 30 min at 37° C. Following incubation with SNARF, cells were sedimented and the pellets were held on ice. Immediately before analysis, pellets were resuspended in […] (HBSS; experimental buffer) or high-[K+] buffer containing nigericin (calibration samples).
(In general: Flow cytometry measures light scatter and fluorescence of single cells or particles in a stream.)

Another data set deals with Bcl-xLΔC20 (Homo sapiens, UniProt Q07817). The data set is described as follows: Calcein leakage from large unilamellar vesicles (pore formation). The class given is biochemical.
Chain of Bcl-xLΔC20 (Q07817 1-213 limits assumed, stated change not applied): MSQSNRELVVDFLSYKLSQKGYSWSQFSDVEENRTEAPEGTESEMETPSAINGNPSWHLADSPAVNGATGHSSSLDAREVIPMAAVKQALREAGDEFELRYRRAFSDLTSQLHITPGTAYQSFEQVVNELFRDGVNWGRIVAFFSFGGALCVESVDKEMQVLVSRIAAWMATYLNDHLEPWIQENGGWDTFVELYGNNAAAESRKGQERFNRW
For data set [3], the system named is mitochondria from TABX2S cells (high levels of Bcl-xL). The data set is described as follows: JC-1 membrane potential of isolated mitochondria. The arrangement: species or system murine. The protocol:
Isolated mitochondria were loaded with JC-1 prior to treatment, and mitochondrial labeling was determined using FACS. […] Antimycin A-treated mitochondria with high levels of Bcl-xL had lower levels of JC-1 staining than parallel samples treated with CCCP. Uncoupled mitochondria still retain a significant Donnan potential because of trapped anionic species and it is likely that antimycin-induced PT and/or swelling of mitochondria led to a further reduction of this residual potential.
As observed for the parent compound, antimycin A3, mitochondria with normal levels of BCl-xL expression were not affected by the 2-methoxy analog.

In another data set the test system is TABX2S cells. The experiment in a line: Intracellular ATP, luciferase-luciferin assay. Format: cell-based, murine. Particulars: 2 μg/ml plus fructose 50 mM. The protocol: (§1) Fructose is a substrate that provides ATP production through the glycolytic pathway. After a 30-60 minute incubation, cells were harvested and intracellular ATP concentrations were determined by an ATP-dependent luciferase-luciferin assay (Sigma, St. Louis, Mo.). The ATP concentrations in DMSO-treated cells were taken as 100%. In parallel experiments, cell viability was determined after six hours.

Another data set concerns TABX1A cells. The data set is described as follows: Intracellular ATP, luciferase-luciferin assay. Format: cell-based, murine. The following applies: 2 μg/ml plus fructose 50 mM. The protocol:
as §1

Procedure for Bcl-xLΔC20: In this example the ability of antimycin A to prevent pore formation by BCl-xL was tested. […] Recombinant human BCl-xL lacking the C-terminal 20-residue membrane anchor sequence, Bcl-xLΔC20, forms pores in large unilamellar vesicles. A reporter, calcein, can leak out of the vesicles through these pores.
Briefly, a dry film of lipid was resuspended in an aqueous solution containing 40 mM calcein (Molecular Probes, Eugene, Oreg.), 25 mM KCl and 10 mM HEPES (pH 7.0). After 5 freeze-thaw cycles, the lipidic solution was extruded through 2 Nucleopore filters, 0.1 μm pore diameter. […] The size of the vesicle suspension was measured by a Coulter N4 Plus-Sizer to confirm that the mean diameter of the vesicle sample was close to the expected size (100 nm). The osmolalities of all solutions were measured in a cryoscopic osmometer (Wescor Inc., Logan, Utah) and adjusted to 0.21 Osmol/kg by the addition of sodium chloride, as necessary.
Calcein leakage was determined by adding 2-4 μg of purified Bcl-xLΔC20 (5 μg/ml, 161 nM) to a solution of 100 mM NaCl, 10 mM HEPES (pH 5.0) containing the large unilamellar vesicles (50 μM final lipid concentration) described above. Changes in the fluorescence intensity were measured in an Aminco-SLM spectrofluorimeter. […] The 100% fluorescence level for leakage was obtained by detergent lysis (0.1% Triton X-100) of the vesicles containing entrapped calcein.

Take `CCCCCC[C@H]1C(=O)O[C@H](C)[C@H](NC(=O)c2cccc(NC=O)c2OC)C(=O)O[C@@H](C)[C@@H]1OC(=O)CC(C)C` [2-OMeA1, 2-methoxy antimycin A1]: the “histologic examinations of normal tissues” value with NOD/SCID mice (10 mg/kg) is reported as “No cellular injury or inflammation”. The “reformation of antimycin A1 in plasma” value in the data set with NOD/SCID mice (preliminary LC/MS analyses of plasma after administration) is given as “have not demonstrated reformation”. In addition, the “mice survived without apparent toxicity” value in the data set with NOD/SCID mice (three intravenous doses of 10 mg/kg on alternate days) is recorded as 6 of 6. Besides, the adverse effects entry in the data set on NOD/SCID mice (treated tumor-bearing mice, 10 mg/kg) is “No adverse effects”. The “time to regression of early and large nodules” value in data set [1] (10 mg/kg intravenously) is recorded as “within the first week”. The tumor sections result in [1] (24 and 48 h after a single 10 mg/kg intravenous treatment) was “widespread apoptosis”. In addition, the “average reduction of serum levels of human light chain” value in data set [1] (after the third injection, 10 mg/kg intravenous on alternate days) was 87%. For the same molecule, the “mice with tumor regression during treatment” value in data set [1] (three intravenous doses of 10 mg/kg on alternate days starting on day 6) is “Five of six”. In addition, the “effect of delayed treatment on tumor nodules” value in data set [1] (two tumor-bearing control mice, 10 mg/kg on days 43, 46 and 48) is “regression of tumor nodules”. Moreover, the “Protein binding, Dog” value with plasma proteins amounted to 99.8%.

Take 2-methoxy antimycin A [2-OMeA]: the mice died entry in the data set on NOD/SCID mice (intravenous 20 mg/kg) was “Three of six”. In [1] (second round, 10 mg/kg alternate days, days 26 through 31), the “treated mice with regression of tumor nodules” value was 6/6. Besides, the respiratory rate result in data set [2] (repeated additions of 10 μM to a final concentration of 90 μM) is “maintained”. In addition, in the data set on RPMI-8226 (5 and 20 μg/ml, three cell lines), the “cell killing measured as PI uptake, compared with antimycin A” value is given as “similar”. Moreover, the “mode of induced cell death” value with RPMI-8226 is reported as “apoptosis”.

Consider antimycin A, for which the “Bcl-xL pore-forming activity (calcein leakage)” value on Bcl-xLΔC20 (12 μM) was “completely blocked”. Moreover, in data set [3] (vs control mitochondria (TABX1A)), the “decrease in ΔΨm (JC-1)” value is reported as “much greater decrease in ΔΨm”. Moreover, in the data set with TABX2S cells, the “ATP level, of control” value was “approximately 60%”. In addition, the “ATP level, of control” value in the data set with TABX1A cells is on record as “approximately 60%”. The dampening of respiration in data set [2] (10 μM) is reported as greater than 90%. Besides, in the data set with RPMI-8226, the “time of treatment at which cell death was demonstrated” value was no more than 8 h and the “mode of induced cell death” value was “apoptosis”. In the data set with RPMI-8226 (5 to about 20 μg/ml), the “sensitivity (PI exclusion)” value was “sensitive”.

Consider `CCCC[C@H]1C(=O)OC(C)[C@H](NC(=O)c2cccc(NC=O)c2OC)C(=O)O[C@@H](C)C1OC(=O)CC(C)C` (some centres unmarked) [2-OMeA3, Antimycin A3 methyl ether], for which, at Bcl-xLΔC20, the “inhibition of Bcl-xL pore formation, liposome permeability assay” value was “almost as well as antimycin A3”. In [3] (2 μg/ml), the “mitochondrial depolarization (JC-1)” value is listed as “strongly depolarized”. Further, the “Protein binding, Dog” value in the data set with plasma proteins turned out to be 99.3%.
